Source: patent US12527763B2, “Pyrrole amide compound and use thereof” (SUNSHINE LAKE PHARMA CO., LTD., priority 2019, dated 2026)
Values after ≈ are worked out from the molar mass of the structure shown. Where a name gives a salt, the structure may show the parent alone. Read-outs that look alike come from different tables or passages of the source. Blank lines part the entries; values can stand above or below the compound they belong to.

Columns and labels:
[1] = Pharmacokinetic experiment in cynomolgus monkey; type: in vivo, cynomolgus monkeys; conditions: oral, 3 mg/kg; for AUC(0-inf) / Cmax / Tmax / half-life: cynomolgus monkey, plasma, female cynomolgus monkeys
Protocol: Three female cynomolgus monkeys of 3.0-3.5 kg were taken and orally administered with the test compound at a dosage of 3 mg/kg; after the administration, blood was collected at the time points of 0.083, 0.25, 0.5, 1, 2, 4, 6, 8, 24, 32 and 48 hours. A standard curve was established within an appropriate range based on the sample concentration, and AB SCIEX API 5000 LC-MS/MS was used to determine the concentration of the test compounds in the plasma sample in the MRM mode. According to the drug concentration-time curve, WinNnonlin 6.3 software non-compartmental model method was used to calculate the pharmacokinetic parameters.

[2] = Pharmacokinetic experiment in Beagle dogs; type: in vivo; conditions: oral, 5.0 mg/kg; for AUC(0-inf) / Cmax / Tmax / half-life: dog, plasma
Protocol: Beagle dogs 8-10 kg were randomly divided into two groups, and the test compound was administered orally at a dosage of 5.0 mg/kg; after administration, blood was collected at the time points of 0.0833, 0.25, 0.5, 1.0, 2.0, 4.0, 6.0, 8.0, 24.0, 32.0 and 48.0 hours. A standard curve was established within a suitable range according to the sample concentration, and AB SCIEX API4000 LC-MS/MS was used to determine the concentration of the test compounds in the plasma sample in the MRM mode. According to the drug concentration-time curve, the WinNonLin 6.3 software non-compartmental model method was used to calculate the pharmacokinetic parameters.

[3] = test system: Balb/c 3T3 fibroblast; conditions: PMDA Examination Report (Jan. 8, 2019); cited from earlier work
[4] = test system: Balb/c 3T3 cells; conditions: mouse, 1 h
Protocol: (§1) Preparation of the test compound solution: The test compound was dissolved in dimethyl sulfoxide to obtain a 10 mg/mL solution, and then diluted with dimethyl sulfoxide in multiples of 2.15 times into solutions of different concentrations.
(§2) Balb/c 3T3 cells were seeded on 96-well culture plates. After 24 hours of culture, the culture medium was discarded, different concentrations of test compounds or balanced salts (HBSS) solution containing positive control substance (chlorpromazine hydrochloride, CPZ) and vehicle control substance were added. Two culture plates of each concentration of the test compound and the positive control substance are a light (+UV) plate and a non-light (-UV) plate, respectively. After incubating for 1 hour, the light plate was placed under UVA with a light intensity of about 1.7 mw/cm2 until the light dose reached 5.0 J/cm2. The non-light plate was placed at room temperature and protected from light for the same time. After the light was over, the culture medium was replaced with fresh one and continuously cultured for 18-22 hours. About 3 hours before the culture was complete, the culture medium was replaced with a medium containing neutral red and serum-free. After incubation, neutral red eluent was added, the absorbance value (OD540) of each well at 540 nm was measured after shaking. The cell 50% inhibitory concentration (IC50), light stimulating factor (PIF) and/or average light effect (MPE) were calculated. The phototoxicity of the compound was determined according to the following criteria: PIF>5 is judged as positive for phototoxicity; 5>PIF>2 is judged as possible phototoxicity; 2>PIF is judged as no phototoxicity.

[5] = test system: Balb/c 3T3 cells; assay: In vitro 3T3 cell neutral red uptake phototoxicity test; conditions: for IC50: Mus musculus
Protocol: as §1, §2

[6] = molecular target: mineralocorticoid receptor (MR) (Homo sapiens (Human), UniProt P08235); assay: In vitro activity test: MR LBD-Gal4 DBD dual luciferase reporter gene assay in HEK293 cells with aldosterone at EC80; type: cell-based; conditions: antagonism of aldosterone at EC80, 18 hours
From the text: Using the characteristics of luciferase binding to the substrate to generate a chemiluminescence reaction, the plasmid containing mineralocorticoid receptor (MR) ligand binding domain (LBD) fused with Gal4 DNA binding domain (DBD) and the firefly luciferase reporter gene plasmid under the control of Gal4 UAS (upstream activation sequence) are transfected into human embryonic kidney cells (HEK293). The changes in mineralocorticoid receptor activity before and after stimulation or the influence of different stimuli on mineralocorticoid receptor activity are judged by the level of firefly luciferase activity. At the same time, in order to reduce the impact of internal change factors on the accuracy of the experiment, the plasmid with Renilla luciferase gene is used as a control plasmid to transfect cells to provide an internal control for transcriptional activity, so that the test results are not interfered by changes in experimental conditions.
• 1) The HEK293 cells were collected after trypsinization and the cell density was adjusted to 500,000 cells/mL; • 2) FuGENE HD transfection reagent was added to the cell suspension; • 3) The above cell suspension was inoculated into a 96-well cell culture plate of 100 μL/well, and incubated for 24 hours at 37° C., 5% CO2; • 4) A series of concentrations of the test compound solution and EC80 concentration of agonist aldosterone were added to each well and incubated for 18 hours; • 5) Firefly and Renilla luciferase signals were detected by Promega dual luciferase reporter gene test system. Result Processing: • 1) After obtaining the firefly luciferase signal (F) and the Renilla luciferase signal (R), the Renilla luciferase signal was used for correction, that is, the F/R value was used for subsequent calculation of inhibition rate; • 2)% inhibition rate=(Max−X)/(Max−Min)×100%, wherein Max is the F/R value of the positive control well, Min is the F/R value of the negative control well, and X is the test compound well of different concentrations F/R value; • 3) IC50 was calculated by GraphPrism 5.0 mapping software.

[7] = BALB/c3T3, light or radiation study, read-out: IC50 (+UV)
[8] = BALB/c3T3, read-out: IC50 (−UV)

Sequence of mineralocorticoid receptor (MR) (P08235 726-964, species assumed): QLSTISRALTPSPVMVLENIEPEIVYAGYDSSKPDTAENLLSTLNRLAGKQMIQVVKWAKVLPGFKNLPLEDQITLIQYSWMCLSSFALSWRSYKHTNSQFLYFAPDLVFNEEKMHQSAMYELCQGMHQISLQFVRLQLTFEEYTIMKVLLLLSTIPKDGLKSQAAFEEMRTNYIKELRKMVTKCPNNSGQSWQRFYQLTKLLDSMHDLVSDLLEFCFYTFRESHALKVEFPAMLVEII

Structure (SMILES): Cc1c(C(=O)Nc2ccc(S(C)(=O)=O)cc2)cn(CCO)c1-c1ccccc1C(F)(F)F (atropisomer, axis not shown) [CS-3150, Esaxerenone, reference compound]
AUC(0-inf) [1]: 8990 ng·h/mL | Cmax [1]: 741 ng/mL | Tmax [1]: 1.67 h | half-life [1]: 9.63 h | AUC(0-inf) [2]: 45600 ng·h/mL | Cmax [2]: 1580 ng/mL | Tmax [2]: 2.33 h | half-life [2]: 20.3 h | light stimulus factor PIF [3]: > 17 | phototoxicity (in words) [3]: phototoxic

Structure (SMILES): CN(C)CCCN1c2ccccc2Sc2ccc(Cl)cc21 [CPZ, chlorpromazine hydrochloride, reference compound]
MPE (average light effect) [4]: 0.368 | PIF (light stimulating factor) [4]: 37.381 | IC50 [5, 7]: 0.982 µg/mL | IC50 [5, 8]: 36.7 µg/mL

Structure (SMILES): Cc1c(C(=O)Nc2ccc(S(C)(=O)=O)c(F)c2)cn(CCO)c1-c1ccccc1C(F)(F)F [Example 1, N-(3-Fluoro-4-(methylsulfonyl)phenyl)-1-(2-hydroxyethyl)-4-methyl-5-(2-(trifluoromethyl)phenyl)-1H-pyrrole-3-carboxamide]
IC50 [6]: 6.93 nM

Structure (SMILES): Cc1c(C(=O)Nc2ccc([S@SP2](C)(=O)=O)c(F)c2)cn(CCO)c1-c1ccccc1C(F)(F)F [Example 2, (S)-1-(2-Hydroxyethyl)-4-methyl-N-(3-fluoro-4-(methylsulfonyl)phenyl)-5-(2-(trifluoromethyl)phenyl)-1H-pyrrole-3-carboxamide]
IC50 [6]: 3.4 nM | AUC(0-inf) [1]: 22000 ng·h/mL | Cmax [1]: 1040 ng/mL | Tmax [1]: 5.3 h | half-life [1]: 13 h | pharmacokinetic properties compared to the control compound CS-3150 ([1]; cynomolgus monkeys): higher exposure, blood concentration and bioavailability | AUC(0-inf) [2]: 145000 ng·h/mL | Cmax [2]: 4690 ng/mL | Tmax [2]: 3.33 h | half-life [2]: 25.3 h | pharmacokinetic properties compared with the control compound CS-3150 [2]: higher exposure, blood concentration and long half-life | MPE (average light effect) ([5]; Balb/c 3T3 cells, +UV vs −UV): −0.044 | PIF (light stimulating factor) ([5]; Balb/c 3T3 cells, +UV vs −UV): 1.289 | IC50 [5, 7]: 49.6 µg/mL (≈ 102 µM) | IC50 [5, 8]: 63.8 µg/mL (≈ 132 µM) | in vitro phototoxicity (in words) ([5]; conclusion from Table 6): no in vitro phototoxicity | Phototoxicity ([5]; judged from PIF): − (2>PIF is judged as no phototoxicity)

Second part, the compound after the results:

IC50 [6]: 47.6 nM
Structure (SMILES): Cc1c(C(=O)Nc2ccc(S(C)(=O)=O)c(F)c2)cn(CC2(O)CC2)c1-c1ccccc1C(F)(F)F [Example 3, N-(3-Fluoro-4-(methylsulfonyl)phenyl)-1-((1-hydroxycyclopropyl)methyl)-4-methyl-5-(2-(trifluoromethyl)phenyl)-1H-pyrrole-3-carboxamide]

IC50 [6]: 21.5 nM
Structure (SMILES): Cc1c(C(=O)Nc2ccc(S(C)(=O)=O)c(F)c2)cn(CC2CCO2)c1-c1ccccc1C(F)(F)F (stereo not shown) [Example 5, N-(3-Fluoro-4-(methylsulfonyl)phenyl)-4-methyl-1-(oxetan-2-ylmethyl)-5-(2-(trifluoromethyl)phenyl)-1H-pyrrole-3-carboxamide]

IC50 [6]: 30.3 nM
Structure (SMILES): Cc1c(C(=O)Nc2ccc(S(C)(=O)=O)c(F)c2)cn(C2COC2)c1-c1ccccc1C(F)(F)F [Example 6, N-(3-Fluoro-4-(methylsulfonyl)phenyl)-4-methyl-1-(oxetan-3-yl)-5-(2-(trifluoromethyl)phenyl)-1H-pyrrole-3-carboxamide]

IC50 [6]: 84.5 nM
Structure (SMILES): Cc1c(C(=O)Nc2ccc(S(C)(=O)=O)c(F)c2)cn(-c2cccnc2)c1-c1ccccc1C(F)(F)F [Example 7, N-(3-Fluoro-4-(methylsulfonyl)phenyl)-4-methyl-1-(pyridin-3-yl)-5-(2-(trifluoromethyl)phenyl)-1H-pyrrole-3-carboxamide]

IC50 [6]: 82.2 nM
Structure (SMILES): Cc1c(C(=O)Nc2cc(F)c3c(c2)sc(=O)n3C)cn(CCO)c1-c1ccccc1C(F)(F)F [Example 8, N-(4-Fluoro-3-methyl-2-oxo-2,3-dihydrobenzo[d]thiazol-6-yl)-1-(2-hydroxyethyl)-4-methyl-5-(2-(trifluoromethyl)phenyl)-1H-pyrrole-3-carboxamide]
